Broadly, the MIC is the lowest concentration that inhibits growth of the organism. In general, IC50 refers to the concentration needed to halve the response being measured. Usually melting point stands for the temperature of the solid-liquid transition.

MIC, IC50 and melting point data for six molecules are collected here from paper PMC8002271, “Synthesis and Biological Activity Evaluation of Coumarin-3-Carboxamide Derivatives” (Molecules, 2021).

The structures appear in SMILES notation. Read-outs that look alike come from different tables or passages of the source. A value given as a limit tells only on which side of the number the result lay.

The subject of one data set is B. subtilis TISTR 001. The experiment in a line: Antibacterial microbroth dilution MIC, B. subtilis. The data set is classed as cell-based. To be noted: Bacillus subtilis, TISTR001; Gram-positive; microbroth dilution, 37 °C, 24 h; read-out: MIC B. subtilis. The method, then: (§1) The antibacterial activities of coumarin derivatives 10, 12, 13, 14a–g, and 15 were evaluated against five reference standard bacteria, both gram-positive and gram-negative: B. cereus TISTR 2372, B. subtilis TISTR 001, S. aureus TISTR 2392, E. coli TISTR 073, and S. typhimurium TISTR 2519, using a standard microbroth dilution method.
(§2) The MIC values of coumarin derivatives 10, 12, 13, 14a–g, and 15 were determined through the microbroth dilution method in 96-well microtitre plates. The bacterial cultures were prepared from overnight cultures on nutrient broth (NB) at 37 °C for 24 h by diluting in NB compared with 0.5 McFarland. Coumarin derivatives 10, 12, 13, 14a–g, and 15 (5000 µg/mL) were prepared in EtOH, and 128 µg/mL of these were added to the first wells. Two-fold serial dilutions were prepared, and final concentrations of 128 to 1 µg/mL were achieved. The positive controls for penicillin G were determined, with the final concentrations from 128 to 1 µg/mL. In addition, an extra row of EtOH was used as a vehicle control to determine its possible inhibitory activity. Finally, 10 µL of bacterial suspension was added to each well. After the bacteria were incubated at 37 °C for 24 h, the microtitre plates were visually examined for bacterial growth; the growth rate was monitored at the optical density at 600 nm with a microplate reader.
For orientation: Dilution methods test growth across graded concentrations, often in twofold steps.

For the next data set, the system named is HeLa cancer cell line. The experiment in a line: MTT cell viability assay, HeLa. The data set is classed as cell-based. The conditions noted are these: cancer cell line, MTT assay, 24 h treatment, read-out: IC50 HeLa. The method, then: (§3) The cell viability assays of coumarin derivatives 10, 12, 13, 14a–g, and 15 were conducted against three cancer cell lines (HepG2, HeLa, and MDA-MB-231) and one normal cell line (LLC-MK2) using an MTT assay.
(§4) Stock solutions of coumarin derivatives 10, 12a, 13, 14a–g, and 15 were prepared in EtOH at a concentration of 5000 µg/mL. Prior to use, the stock solutions were further diluted to 128 µg/mL and added to the first wells. Two-fold serial dilutions were prepared, and final concentrations of 128 to 1 µg/mL in culture medium were achieved. Cells were seeded at a density of 5 × 10^4 cells/well in a 96-well plate and incubated for 16 h, followed by treatment with the test compounds. The control culture contained the carrier solvent of 2.5% dimethyl sulfoxide (DMSO). After 24 h, HepG2, HeLa, MDA-MB-231, and LLC-MK2 cells were then incubated with MTT (500 μg/mL) for 4 h. Then, DMSO was added to dissolve the blue formazan crystals formed, which were formed as a result of the action of cellular oxidoreductase enzymes on the MTT dye. Finally, the optical density at 450 nm was determined using a microplate reader.

The subject of another data set is HepG2 cancer cell line. The experiment in a line: MTT cell viability assay, HepG2. The conditions noted are these: cancer cell line, MTT assay, 24 h treatment, read-out: IC50 HepG2. The class given is cell-based. The method, then: as §3, §4
For orientation: Tetrazolium assays rely on reduction of a dye to a coloured formazan, in cell work by metabolically active cells.

Another data set concerns S. aureus TISTR 2392. The data set can be described thus: Antibacterial microbroth dilution MIC, S. aureus. The data set is classed as cell-based. The conditions noted are these: Staphylococcus aureus, TISTR2392; Gram-positive; microbroth dilution, 37 °C, 24 h; read-out: MIC S. aureus. The method, then:
as §1, §2

Data set [1] relates to S. typhimurium TISTR 2519. The data set can be described thus: Antibacterial microbroth dilution MIC, S. typhimurium. The class given is cell-based. To be noted: Salmonella enterica; Gram-negative; microbroth dilution, 37 °C, 24 h; read-out: MIC S. typhimurium. The method, then:
as §1, §2

In another data set the test system is B. cereus TISTR 2372. The experiment in a line: Antibacterial microbroth dilution MIC, B. cereus. The conditions noted are these: Bacillus cereus, TISTR2372; Gram-positive; microbroth dilution, 37 °C, 24 h; read-out: MIC B. cereus. The class given is cell-based. The method, then: as §1, §2
For another data set, the system named is E. coli TISTR 073. The experiment in a line: Antibacterial microbroth dilution MIC, E. coli. The class given is cell-based. The conditions noted are these: Escherichia coli, TISTR073; Gram-negative; microbroth dilution, 37 °C, 24 h; read-out: MIC E. coli. The method, then:
as §1, §2

In a further data set the test system is LLC-MK2 normal cell line. The experiment in a line: MTT cell viability assay, LLC-MK2 normal cells. The data set is classed as cell-based. The conditions noted are these: Macaca mulatta, LLC-MK2; normal cell line; MTT assay, 24 h treatment; read-out: IC50 LLC-MK2. The method, then:
as §3, §4

`CC(C)=CCc1cc2cc(C(=O)Nc3ccccc3)c(=O)oc2cc1O` [14a, 7-Hydroxy-6-(3-methylbut-2-en-1-yl)-2-oxo-N-phenyl-2H-chromene-3-carboxamide] had a melting point of 258 to 259 °C. Besides, the MIC in the data set with B. subtilis TISTR 001 is over 128 µg/mL. In addition, in the data set with HeLa cancer cell line (Homo sapiens, HeLa, 24 h), the IC50 worked out at 10.4 µM. Moreover, the IC50 in the data set with HepG2 cancer cell line (Homo sapiens, HepG2, 24 h) is 4.33 µM. For the same molecule, the minimum inhibitory concentration (MIC) in the data set with S. aureus TISTR 2392 was over 128 µg/mL. Besides, the MIC in [1] was over 128 µg/mL. In the data set on B. cereus TISTR 2372, the MIC is over 128 µg/mL. For the same molecule, in the data set on E. coli TISTR 073, the MIC was over 128 µg/mL. Besides, the IC50 in the data set with LLC-MK2 normal cell line worked out at 0.48 µM.
The molecule `CC(C)=CCc1cc2cc(C(=O)Nc3ccc(F)cc3)c(=O)oc2cc1O` [14b, N-(4-Fluorophenyl)-7-hydroxy-6-(3-methylbut-2-en-1-yl)-2-oxo-2H-chromene-3-carboxamide] had a melting point of 259 to 261 °C. Further, in the data set with B. subtilis TISTR 001, the MIC is over 128 µg/mL. In addition, in the data set with HeLa cancer cell line (Homo sapiens, HeLa, 24 h), the IC50 was in the range of 0.39 to 0.75 µM. For the same molecule, the IC50 with HeLa cancer cell line amounted to 0.75 µM. In addition, in the data set on HepG2 cancer cell line (Homo sapiens, HepG2, 24 h), the IC50 lay in the range of 2.62 to 4.85 µM. Also, the IC50 in the data set on HepG2 cancer cell line stood at 4.85 µM. For the same molecule, the MIC in the data set on S. aureus TISTR 2392 is over 128 µg/mL. The MIC in data set [1] was over 128 µg/mL. The MIC in the data set on B. cereus TISTR 2372 is over 128 µg/mL. In the data set with E. coli TISTR 073, the MIC was over 128 µg/mL. The IC50 in the data set with LLC-MK2 normal cell line is over 100 µM.
Regarding `CC(C)=CCc1cc2cc(C(=O)Nc3ccc(Cl)cc3)c(=O)oc2cc1O` [14c, N-(4-Chlorophenyl)-7-hydroxy-6-(3-methylbut-2-en-1-yl)-2-oxo-2H-chromene-3-carboxamide], the melting point was in the range of 282 to 283 °C. Also, in the data set on B. subtilis TISTR 001, the MIC is over 128 µg/mL. Further, in the data set with HeLa cancer cell line (Homo sapiens, HeLa, 24 h), the IC50 came out at 14 µM. Further, the IC50 with HepG2 cancer cell line (Homo sapiens, HepG2, 24 h) was 30.3 µM. Also, in the data set on S. aureus TISTR 2392, the MIC was over 128 µg/mL. The MIC in [1] is over 128 µg/mL. In addition, the MIC in the data set on B. cereus TISTR 2372 was over 128 µg/mL. In addition, the MIC in the data set with E. coli TISTR 073 was over 128 µg/mL. Moreover, the IC50 in the data set with LLC-MK2 normal cell line came to 66.8 µM.
In turn, `CC(C)=CCc1cc2cc(C(=O)Nc3ccc(Br)cc3)c(=O)oc2cc1O` [14d, N-(4-Bromophenyl)-7-hydroxy-6-(3-methylbut-2-en-1-yl)-2-oxo-2H-chromene-3-carboxamide] registered a melting point of 276 to 277 °C. Also, the minimum inhibitory concentration (MIC) in the data set on B. subtilis TISTR 001 was over 128 µg/mL. The IC50 with HeLa cancer cell line (Homo sapiens, HeLa, 24 h) was determined as 37.4 µM. In addition, the IC50 with HepG2 cancer cell line (Homo sapiens, HepG2, 24 h) was found to be 45.8 µM. The MIC in the data set on S. aureus TISTR 2392 was over 128 µg/mL. The MIC in data set [1] is over 128 µg/mL. Besides, the MIC in the data set with B. cereus TISTR 2372 was over 128 µg/mL. Also, the MIC in the data set on E. coli TISTR 073 is over 128 µg/mL. In addition, in the data set with LLC-MK2 normal cell line, the IC50 was over 100 µM.
Consider `CC(C)=CCc1cc2cc(C(=O)Nc3cc(F)ccc3F)c(=O)oc2cc1O` [14e, N-(2,5-Difluorophenyl)-7-hydroxy-6-(3-methylbut-2-en-1-yl)-2-oxo-2H-chromene-3-carboxamide], for which the melting point fell in the range of 248 to 250 °C. Further, the MIC with B. subtilis TISTR 001 is over 128 µg/mL. Further, the IC50 with HeLa cancer cell line (Homo sapiens, HeLa, 24 h) fell in the range of 0.39 to 0.75 µM. The IC50 in the data set with HeLa cancer cell line came out at 0.39 µM. In the data set on HepG2 cancer cell line (Homo sapiens, HepG2, 24 h), the IC50 was in the range of 2.62 to 4.85 µM. The IC50 with HepG2 cancer cell line stood at 2.62 µM. Also, in the data set with S. aureus TISTR 2392, the MIC was over 128 µg/mL. In data set [1], the minimum inhibitory concentration (MIC) was over 128 µg/mL. Also, the MIC in the data set with B. cereus TISTR 2372 is over 128 µg/mL. Further, the MIC in the data set with E. coli TISTR 073 is over 128 µg/mL. Also, the IC50 in the data set on LLC-MK2 normal cell line came out at 1.33 µM.
Turning to `CC(C)=CCc1cc2cc(C(=O)Nc3ccc(C)cc3)c(=O)oc2cc1O` [14f, 7-Hydroxy-6-(3-methylbut-2-en-1-yl)-2-oxo-N-(p-tolyl)-2H-chromene-3-carboxamide], the melting point fell in the range of 276 to 277 °C. Further, the MIC in the data set on B. subtilis TISTR 001 is over 128 µg/mL. Besides, the IC50 in the data set on HeLa cancer cell line (Homo sapiens, HeLa, 24 h) was over 100 µM. In addition, the IC50 in the data set on HepG2 cancer cell line (Homo sapiens, HepG2, 24 h) is over 100 µM. The MIC in the data set on S. aureus TISTR 2392 was over 128 µg/mL. The MIC in data set [1] is over 128 µg/mL. Moreover, the MIC in the data set with B. cereus TISTR 2372 is over 128 µg/mL. In the data set on E. coli TISTR 073, the MIC is over 128 µg/mL. Besides, in the data set on LLC-MK2 normal cell line, the IC50 turned out to be 85.3 µM.
